# Results as given in patent US7772255B2, “Method of treating tumors with azaxanthones” (Supratek Pharma, Inc., priority 2005, dated 2010).
# Counter-ions that a name gives are not always drawn. Like-named read-outs stand apart in the source and are kept apart here.
# What was measured:
# CSML100 cells [1] = assay: CSML100 (murine mammary carcinoma) experimental metastasis model (Example 24); format: in vivo, mouse; conditions: 100 mg/kg/day i.v., 10 daily injections
# Experimental: Amlexanox solution for injections was prepared according to the Example 4. CSML100 cells were inoculated intravenously in 26 female A/J mice (6-7 weeks old). Animals were then divided randomly into two groups: 1) untreated control (n=16, saline) and 2) Amlexanox treated (n=10, 100 mg/kg/day, i.v.; 10 daily injections). The control group received i.v. injections with 5 ml/kg (volume/body weight) of saline, while Amlexanox was administrated intravenously daily with a dose of 100 mg/kg in a volume of 5 ml/kg. Treatment was started on the day following the day of tumor cell implantation and continued for 10 consecutive days. The animal body weight was recorded as an index of treatment toxicity during the experiment. From the day 10 after cell implantation, one animal in the control group was sacrificed every day to monitor the metastasis development. All remaining animals were sacrificed on the day 18 for routine metastasis inspection. Although all organs were routinely screened, metastatic formation was only found in the lungs. The metastatic colonies on the organ surface were enumerated immediately following the removal of the organ.
# A maximum body weight loss in treated group was less than 10%. The data are expressed as mean±SEM for the number of metastatic sites on the lung surface.
# CSML100 cells [2] = assay: S100A4-positive lung metastasis tumor model, alone or in combinations (Example 25); format: in vivo, mouse; conditions: CSML100 i.v. in A/J mice, 10 days, mean±SEM
# Experimental: Amlexanox solution for injections was prepared according to the Example 4. […] The animals were then divided randomly into 9 groups (n=9 except for control group): 1) intact control (n=13, saline); 2) Amlexanox (i.v. 100 mg/kg); 3) Amlexanox ([…]. 3 mg/kg); 5) Amlexanox ([…]. […] 10 mg/kg). […] The treatments were started on the day following the tumor cell implantation and continued for 10 consecutive days. […] The animal body weight was recorded as an index of treatment toxicity during the experiment. […] The data are expressed as mean±SEM for the number of metastatic sites on the lung surface.
# [3] = Chemical stability of Amlexanox sodium salt solution (HPLC); format: physicochemical; conditions: 20 mg Amlexanox sodium salt in 2 mL Tris buffer pH 7.2; 0.05 molar equivalent of the listed compound; 72 hours, ambient light, access to air; HPLC peak area
# Experimental: 20 mg of crystalline Amlexanox sodium salt was dissolved in a clear glass test tube in 2 mL of Tris buffer, pH 7.2. For each of the stabilizing compounds listed in the Table below, 0.05 molar equivalent of the compound was added to the solution, mixed until dissolved, and left under ambient light, and with access to the air. Concentration of Amlexanox in the sample was determined by HPLC right after preparation, and after 72 hours. The chemical stability of Amlexanox was evaluated by comparison of area under the peak of amlexanox from the two analyses.
# [4] = Pharmacokinetics and bioavailability in normal mice; format: in vivo, mouse; conditions: for AUC / Cmax / MRT / clearance / half-life / Vd / bioavailability: female; for Vd: read-out: Vss; for bioavailability: C57BL/6, plasma, po, mouse, sodium salt, read-out: Bioavailability for oral administration
# Experimental: Female C57BL/6 mice were used at 6 to 7 weeks of age. The animals were given food (Purina mouse chow, Pro Lab PMH 4018, Trademark of Agway, Syracuse, N.Y., USA) and water ad libitum. The mice were kept at five per cage under light (12 h light/dark cycle) and temperature (22±1° C.) controlled environment. The animal studies were conducted according to the “Guidelines for Care and Use of Experimental Animals”.
# Amlexanox sodium salt dosing solutions for oral administration were prepared by dissolving amlexanox sodium salt, prepared according to Example 10, in distilled water. amlexanox sodium salt dosing solutions for i.v. administration were prepared by dissolving amlexanox sodium salt, prepared according to Example 10, in isotonic solution (0.9% NaCl). Amlexanox meglumine formulation dosing solutions for oral administration were prepared by dissolving amlexanox meglumine formulation F1, prepared according to Example 12, in distilled water. Amlexanox meglumine formulation dosing solutions for i.v. administration were prepared by dissolving amlexanox meglumine formulation F1, prepared according to Example 13, in isotonic solution (0.9% NaCl). 1 mg/mL solution of amlexanox was used for dosing 10 mg/kg, and 10 mg/mL solution was used for dosing 100 mg/kg.
# Amlexanox-X dosing solutions were administered i.v. and orally in normal mice (four animals per each time point). After various time intervals (15, 30 min and 1, 3, 6 and 8 h for Amlexanox-X Na salt and 15, 30 min, 1, 2 and 6 h for Amlexanox-X+MG) post-injection, blood and major organs (liver, kidney, lung and brain) were collected. Then, blood was immediately centrifuged, and plasma was separated. The plasma and tissue samples were immediately frozen in dry ice and stored at −80° C. until further use.
# The defrosted plasma samples were centrifuged at 2000 g for 5 min, and aliquots (10 μL) of each sample were transferred into 1.5-ml plastic tubes. The samples were diluted with PBS in various amounts of times and aliquots of 100 μL were transferred into the other 1.5-ml plastic tubes. The samples were extracted with 1 mL of 100% acetonitrile for 10 min on 180° rotator. Then, the tubes were centrifuged at 10,000 g for 15 min.
# The supernatant was separated to glass tubes and evaporated in a stream of nitrogen at […]. until dryness. The dried samples were kept at −20° C. until HPLC analysis. The samples were reconstituted in 100 μL of mobile phase analyze before analyze by HPLC.
# The samples were analysed by HPLC using 250×4.6 mm, Phenomenex C18 Luna, 5 micron column, 1 mL/min flow rate of mobile phase 73% of 25 mM sodium phosphate pH 7.5 and 27% acetonitrile; fluorescent deyection λexcitation=348 nm, λemission=404 nm.
# The concentrations of amlexanox in samples were determined by comparison with calibration curve obtained from spiked mouse plasma samples using the same analytical method. The areas under the curves (AUC) of amlexanox were calculated by trapezoidal method. Main pharmacokinetic parameters of amlexanox and bioavailability if amlexanox Na salt and amlexanox with meglumine formulation are shown in Tables below.
# [5] = C57BL/6, iv, mouse plasma, i.v., 10 mg/kg
# [6] = C57BL/6, iv, mouse plasma, i.v., 100 mg/kg
# [7] = C57BL/6, mouse plasma, oral, 10 mg/kg
# [8] = C57BL/6, mouse plasma, oral, 100 mg/kg
smiles,measurement,setting,value
"CC(C)c1ccc2oc3nc(N)c(C(=O)O)cc3c(=O)c2c1 [Amlexanox, 2-amino-7-isopropyl-1-azaxanthone-3-carboxylic acid]",Average of lung metastasis number per animal (sample number),"CSML100 cells [1]; CSML100 cells i.v. in female A/J mice, day 18, mean±SEM",18.8 ± 2.3 (9)
same,Treated/control × 100%,"CSML100 cells [1]; lung metastasis number, day 18",48.5%
same,maximum body weight loss,"CSML100 cells [1]; treated group, A/J mice",less than 10%
same,Lung Metastasis Number per Animal,CSML100 cells [2]; Amlexanox i.v. 100 mg/kg daily,29.6 ± 3.89
same,Lung Metastasis Number per Animal,CSML100 cells [2]; Amlexanox p.o. 200 mg/kg daily,26.2 ± 4.16
"CC(C)c1ccc2oc3nc(N)c(C(=O)O)cc3c(=O)c2c1 [Amlexanox (salt), 2-amino-7-isopropyl-1-azaxanthone-3-carboxylic acid sodium salt]",Retained Amlexnox,[3],93.8%
same,AUC,[4]; [5],31.3 µg·h/mL
same,Cmax,[4]; [5],55.7 µg/mL
same,MRT,[4]; [5],0.5 h
same,clearance,[4]; [5],5 mL/min/kg
same,half-life,[4]; [5],0.4 h
same,Vd,[4]; [5],0.2 L/kg
same,AUC,[4]; [6],734 µg·h/mL
same,Cmax,[4]; [6],590 µg/mL
same,MRT,[4]; [6],1.2 h
same,clearance,[4]; [6],0.167 mL/min/kg
same,half-life,[4]; [6],0.8 h
same,Vd,[4]; [6],0.02 L/kg
same,bioavailability,[4]; 10 mg/kg,61.7%
same,bioavailability,[4]; 100 mg/kg,41.1%
same,AUC,[4]; [7],19.3 µg·h/mL
same,Cmax,[4]; [7],17.6 µg/mL
same,MRT,[4]; [7],1.6 h
same,half-life,[4]; [7],1.1 h
same,AUC,[4]; [8],302 µg·h/mL
same,Cmax,[4]; [8],206 µg/mL
same,MRT,[4]; [8],2.2 h
same,half-life,[4]; [8],1.5 h
same,CL,"[4]; mouse plasma, oral, 10 mg/kg",8.3 mL/min/kg
same,Vss,"[4]; mouse plasma, oral, 10 mg/kg",0.8 L/kg
same,Vss,"[4]; mouse plasma, oral, 100 mg/kg",0.07 L/kg
